According to patent US8921307B2, “Synthetic linear apelin mimetics for the treatment of heart failure” (priority 2012, dated 2014):
Where a SMILES comes first, the peptide text is derived from it. [ ]: non-standard residue; d: D form. pGlu = O=C1CC[C@@H](C(=O)O)N1; dNle = CCCC[C@@H](N)C(=O)O; dNva = CCC[C@@H](N)C(=O)O; Aib = CC(C)(N)C(=O)O

Legend:
[1] = Surrogate Activity-Based Plasma Stability Assay; assay type: in vitro ADME; conditions: rat, Surrogate activity-based Plasma stability t½
Experimental: Stability half-life was then calculated by the formula, t½=0.693÷k Surrogate Activity-Based Plasma Stability Assay: […]
2) Calculate slope of value above and […]

hAPJ = molecular target: T1, hAPJ (Homo sapiens, UniProt P35414); test: hAPJ Calcium Flux Assay; assay type: cell-based; conditions: Chem-5 APJ stable cells, FLIPR calcium flux stimulation; read-out: hAPJ Ca^2+ Flux EC50
T1 sequence (P35414 1-380): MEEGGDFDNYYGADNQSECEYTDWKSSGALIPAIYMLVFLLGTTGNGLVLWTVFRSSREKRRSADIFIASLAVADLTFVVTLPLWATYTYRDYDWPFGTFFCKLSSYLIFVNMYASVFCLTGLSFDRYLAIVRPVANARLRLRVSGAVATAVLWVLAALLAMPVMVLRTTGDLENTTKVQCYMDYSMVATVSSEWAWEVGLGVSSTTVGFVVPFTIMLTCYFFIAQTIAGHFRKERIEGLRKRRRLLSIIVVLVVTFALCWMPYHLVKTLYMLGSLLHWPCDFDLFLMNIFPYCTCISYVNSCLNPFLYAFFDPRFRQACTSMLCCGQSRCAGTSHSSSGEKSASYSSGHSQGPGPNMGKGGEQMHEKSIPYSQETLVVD
Experimental: Chem-5 APJ stable cells (Millipore # HTS068C) were plated in 384-well format with 10,000 cells/well in 25 ul growth media, then grown 24 hours in a 37° C. tissue culture incubator. One hour before the assay, 25 ul/well FLIPR Calcium 4 dye (Molecular Devices R8142) with 2.5 mM probenecid was added, and cells were incubated one hour in a 37° C. tissue culture incubator. Peptides were solubilized in HBSS, HEPES & 0.1% BSA buffer, and serially-diluted 10-fold, from 50 uM to […], in triplicate. FLIPR Tetra was used to add peptide to the cells with dye (1:5, for final peptide concentrations ranging from 10 uM to […]). FLIPR dye inside the cells emitted fluorescence after binding to calcium, while fluorescence from outside the cells was masked. Fluorescence was measured using 470-495 excitation and 515-575 emission wavelengths on the FLIPR Tetra. Readings were done for 3 minutes total, beginning 10 seconds before the peptide addition. Maximum-minimum values were calculated and plotted for each peptide concentration, and GraphPad prism software was used to calculate EC50 values at the curve inflection points, for calcium flux stimulation by peptides.

| SMILES | half-life [1] [h] | EC50 (hAPJ) [nM] |
| --- | --- | --- |
| CCCC[C@@H](NC(=O)[C@@H]1CCCN1C(=O)CNC(=O)[C@H](CCCCN)NC(=O)[C@H](Cc1c[nH]cn1)NC(=O)[C@@H](C)NC(=O)[C@H](CC(C)C)NC(=O)[C@H](CCCNC(=N)N)NC(=O)[C@@H]1CCCN1C(=O)[C@H](CCCNC(=N)N)NC(=O)[C@@H]1CCC(=O)N1)C(=O)N[C@H](C)C(=O)N[C@H](CC(=O)O)C(=O)O [Example 22, pE-R-P-R-L-a-H-K-G-P-nle-a-d-OH] ([pGlu]RPRL[dA]HKGP[dNle][dA][dD]-OH) | > 16.7 | 86.8 |
| CCCC[C@H](NC(=O)[C@@H]1CCCN1C(=O)CNC(=O)[C@H](CCCCN)NC(=O)[C@H](Cc1c[nH]cn1)NC(=O)[C@@H](C)NC(=O)[C@H](CC(C)C)NC(=O)[C@H](CCCNC(=N)N)NC(=O)[C@@H]1CCCN1C(=O)[C@H](CCCNC(=N)N)NC(=O)[C@@H]1CCC(=O)N1)C(=O)N[C@H](C)C(=O)N[C@@H](Cc1ccccc1)C(=O)O [Example 39, pE-R-P-R-L-a-H-K-G-P-Nle-a-F-OH] | 14.8 | 4.5 |
| CCCC[C@@H](NC(=O)[C@@H]1CCCN1C(=O)CNC(=O)[C@H](CCCCN)NC(=O)[C@H](Cc1c[nH]cn1)NC(=O)[C@@H](C)NC(=O)[C@H](CC(C)C)NC(=O)[C@H](CCCNC(=N)N)NC(=O)[C@@H]1CCCN1C(=O)[C@H](CCCNC(=N)N)NC(=O)[C@@H]1CCC(=O)N1)C(=O)N[C@H](C)C(=O)N[C@H](Cc1ccccc1)C(N)=O [Example 33, pE-R-P-R-L-a-H-K-G-P-nle-a-f-NH2] | > 16.7 | 14.8 |
| CCCC[C@@H](NC(=O)[C@@H]1CCCN1C(=O)CNC(=O)[C@H](CCCCN)NC(=O)[C@H](Cc1c[nH]cn1)NC(=O)[C@@H](C)NC(=O)[C@H](CC(C)C)NC(=O)[C@H](CCCNC(=N)N)NC(=O)[C@@H]1CCCN1C(=O)[C@@H](N)CCCNC(=N)N)C(=O)N[C@H](Cc1ccccc1)C(=O)O [Example 50, H-R-P-R-L-a-H-K-G-P-nle-f-OH] (H-RPRL[dA]HKGP[dNle][dF]-OH) | 0.183 | 1.4 |
| CCCC[C@@H](NC(=O)[C@@H]1CCCN1C(=O)CNC(=O)[C@H](CCCCN)NC(=O)[C@H](Cc1c[nH]cn1)NC(=O)[C@@H](CCC)NC(=O)[C@H](CC(C)C)NC(=O)[C@H](CCCNC(=N)N)NC(=O)[C@@H]1CCCN1C(=O)[C@H](CCCNC(=N)N)NC(=O)[C@@H]1CCC(=O)N1)C(=O)N[C@H](C)C(=O)N[C@H](Cc1ccccc1)C(=O)O [Example 52, pE-R-P-R-L-nva-H-K-G-P-nle-a-f-OH] ([pGlu]RPRL[dNva]HKGP[dNle][dA][dF]-OH) | > 16.7 | 19.5 |
| CCCC[C@@H](NC(=O)[C@@H]1CCCN1C(=O)CNC(=O)[C@H](CCCCN)NC(=O)[C@@H](C)NC(=O)[C@H](CO)NC(=O)[C@@H](CC(C)C)NC(=O)[C@H](CCCNC(=N)N)NC(=O)[C@@H]1CCCN1C(=O)[C@H](CCCNC(=N)N)NC(=O)[C@@H]1CCC(=O)N1)C(=O)N[C@H](C)C(=O)N[C@H](Cc1ccccc1)C(=O)O [Example 2, pE-R-P-R-(D-Leu)-S-a-K-G-P-nle-a-f-OH] ([pGlu]RPR[dL]S[dA]KGP[dNle][dA][dF]-OH) | > 16.7 | 386 |
| CCCC[C@@H](NC(=O)[C@@H]1CCCN1C(=O)CNC(=O)[C@H](CCCCN)NC(=O)[C@@H](Cc1c[nH]cn1)NC(=O)[C@H](CO)NC(=O)[C@H](CC(C)C)NC(=O)[C@H](CCCNC(=N)N)NC(=O)[C@@H]1CCCN1C(=O)[C@H](CCCNC(=N)N)NC(=O)[C@@H]1CCC(=O)N1)C(=O)N[C@H](C)C(=O)N[C@H](Cc1ccccc1)C(=O)O [Example 56, pE-R-P-R-L-S-h-K-G-P-nle-a-f-OH] ([pGlu]RPRLS[dH]KGP[dNle][dA][dF]-OH) | 5.52 | 6.8 |
| CCCC[C@@H](NC(=O)[C@@H]1CCCN1C(=O)CNC(=O)[C@H](CCCCN)NC(=O)[C@H](Cc1c[nH]cn1)NC(=O)[C@@H](C)NC(=O)[C@H](CC(C)C)NC(=O)[C@H](CCCNC(=N)N)NC(=O)[C@@H]1CCCN1C(=O)[C@H](CCCNC(=N)N)NC(=O)[C@@H]1CCC(=O)N1)C(=O)N[C@H](CCC(=O)O)C(=O)N[C@H](Cc1ccccc1)C(=O)O [Example 19, pE-R-P-R-L-a-H-K-G-P-nle-e-f-OH] ([pGlu]RPRL[dA]HKGP[dNle][dE][dF]-OH) | > 16.7 | 169 |
| CCCC[C@@H](NC(=O)[C@@H]1CCCN1C(=O)CNC(=O)[C@H](CCCCN)NC(=O)C(C)(C)NC(=O)[C@H](CO)NC(=O)[C@H](CC(C)C)NC(=O)[C@H](CCCNC(=N)N)NC(=O)[C@@H]1CCCN1C(=O)[C@H](CCCNC(=N)N)NC(=O)[C@@H]1CCC(=O)N1)C(=O)N[C@H](C)C(=O)N[C@@H](Cc1ccccc1)C(=O)O [Example 37, pE-R-P-R-L-S-Aib-K-G-P-nle-a-F-OH] ([pGlu]RPRLS[Aib]KGP[dNle][dA]F-OH) | 8.72 | 3.9 |
| CCCC[C@@H](NC(=O)[C@@H]1CCCN1C(=O)CNC(=O)[C@H](CCC(=O)O)NC(=O)[C@H](Cc1c[nH]cn1)NC(=O)[C@@H](C)NC(=O)[C@H](CC(C)C)NC(=O)[C@H](CCCNC(=N)N)NC(=O)[C@@H]1CCCN1C(=O)[C@H](CCCNC(=N)N)NC(=O)[C@@H]1CCC(=O)N1)C(=O)N[C@H](C)C(=O)N[C@H](Cc1ccccc1)C(=O)O [Example 60, pE-R-P-R-L-a-H-E-G-P-nle-a-f-OH] ([pGlu]RPRL[dA]HEGP[dNle][dA][dF]-OH) | > 16.7 | 200 |
| CCCC[C@@H](NC(=O)[C@@H]1CCCN1C(=O)CNC(=O)[C@H](CCCCN)NC(=O)[C@H](Cc1c[nH]cn1)NC(=O)[C@@H](C)NC(=O)[C@H](CC(C)C)NC(=O)[C@H](CCCNC(=N)N)NC(=O)[C@@H](C)NC(=O)[C@H](CCCNC(=N)N)NC(=O)[C@@H]1CCC(=O)N1)C(=O)N[C@H](C)C(=O)N[C@H](Cc1ccccc1)C(=O)O [Example 49, pE-R-a-R-L-a-H-K-G-P-nle-a-f-OH] ([pGlu]R[dA]RL[dA]HKGP[dNle][dA][dF]-OH) | > 16.7 | 623 |
| CCCC[C@@H](NC(=O)[C@@H]1CCCN1C(=O)CNC(=O)[C@H](CCCCN)NC(=O)[C@H](Cc1c[nH]cn1)NC(=O)[C@@H](CO)NC(=O)[C@H](CC(C)C)NC(=O)[C@H](CCCNC(=N)N)NC(=O)[C@@H]1CCCN1C(=O)[C@H](CCCNC(=N)N)NC(=O)[C@@H]1CCC(=O)N1)C(=O)N[C@H](C)C(=O)N[C@H](Cc1ccccc1)C(=O)O [Example 12, pE-R-P-R-L-s-H-K-G-P-nle-a-f-OH] ([pGlu]RPRL[dS]HKGP[dNle][dA][dF]-OH) | > 16.7 | 0.9 |
| CCCC[C@@H](NC(=O)[C@@H]1CCCN1C(=O)CNC(=O)[C@H](CCCCN)NC(=O)[C@H](Cc1c[nH]cn1)NC(=O)[C@@H](C)NC(=O)[C@H](CC(C)C)NC(=O)[C@H](CCCNC(=N)N)NC(=O)[C@@H]1CCCN1C(=O)[C@H](CCCNC(=N)N)NC(=O)[C@@H]1CCC(=O)N1)C(=O)N[C@H](CC)C(=O)N[C@H](Cc1ccccc1)C(=O)O [Example 45, pE-R-P-R-L-a-H-K-G-P-nle-abu-f-OH] | > 16.7 | 2.4 |
| CCCC[C@@H](NC(=O)[C@@H]1CCCN1C(=O)[C@H](CC(=O)O)NC(=O)[C@H](CCCCN)NC(=O)[C@H](Cc1c[nH]cn1)NC(=O)[C@@H](C)NC(=O)[C@H](CC(C)C)NC(=O)[C@H](CCCNC(=N)N)NC(=O)[C@@H]1CCCN1C(=O)[C@H](CCCNC(=N)N)NC(=O)[C@@H]1CCC(=O)N1)C(=O)N[C@H](C)C(=O)N[C@H](Cc1ccccc1)C(=O)O [Example 62, pE-R-P-R-L-a-H-K-D-P-nle-a-f-OH] ([pGlu]RPRL[dA]HKDP[dNle][dA][dF]-OH) | 7.9 | 95.9 |
